{"source": "patent US6673937B2", "about": "“Syntheses and methods of use of new antimitotic agents” (The University of Pittsburgh, priority 2000, dated 2004)", "key": {"[1]": {"test_system": "Bcl-2", "assay": "Bcl-2 phosphorylation immunoblot in MCF-7 cells", "type": "cell-based, human", "settings": "3 or 10 μM", "source_text": "Attempts to determine the phosphorylation status of Bcl-2 in tsFT210 cells using two different antibodies were unsuccessful due to the antibodies' inability to detect mouse Bcl-2 or the lack of specificity. Therefore, phosphorylated and non-phosphorylated Bcl-2 was detected in lysates from human MCF-7 cells (American Type Culture Collection, Manassas, Va.) treated with microtubule perturbing agents. Equal amounts of protein were separated by electrophoresis on 15% SDS-PAGE followed by immunoblotting with an antihuman Bcl-2 antibody (sc-509, Santa Cruz Biotechnology). Positive antibody reactions were visualized using peroxidase-conjugated secondary antibodies (Jackson ImmunoResearch, West Grove, Pa.) and an enhanced chemiluminescence detection system (Renaissance, NEN, Boston, Mass.) according to manufacturer's instructions.\nAll known microtubule disrupting compounds cause hyperphosphorylation of the antiapoptotic protein Bcl-2 (Haldar S, Jena N and Croce CM (1995) Inactivation of bcl-2 by phospliorylation. Proc Natl Acad Sci USA 92:4507-4511 and Basu A and Haldar S (1998) Microtubule-damaging drugs trigger bcl2 phosphorylation-requirement of phosphorylation on both serine-70 and serine-87 residues of bcl2 protein. Intl J Oncol 13:659-664). Therefore, the phosphorylation status of Bcl-2 in cells treated with various compounds including SR-7 was examined and the results are illustrated in FIG. 29. Proteins from lysates of MCF-7 cells treated with 0.5 μM paclitaxel, 1 μM nocodozole, 1,μM vincristine and, 3 or 10 μM SR-7 were separated by electrophoresis on 15% SDS-PAGE followed by immunoblotting with an antibody to Bcl-2. The phosphorylated form of Bcl-2 (P) appeared as the upper bands and the underphosphorylated form (U) was the lower band."}, "[2]": {"test_system": "bovine brain tubulin", "assay": "Inhibition of [3H]colchicine binding", "settings": "5 μM compound; Mean ± SEM, N = 9", "method": "Using methods described previously (Verdier-Pinard P, Lai J-Y, Yoo H-D, Yu J, Marquez B, Nagle DG, Nambu M, White JD, Falck JR, Gerwick WH, Day BW and Hamel E (1998) Structure-activity analysis of the interaction of curacin A, the potent colchicine site antimitotic agent, with tubulin and effects of analogs on the growth of MCF-7 breast cancer cells. Mol Phannacol 53:62-76.). 5,μM [^3H]colchicine was incubated with either 5% DMSO vehicle or compound (5 or 50 μM) at 37° C. for 15 min with 1 μM tubulin in the presence of 1 M monosodium glutamate, 0.1 M glucose-1-phosphate, 1 mM MgCl2, 1 mM GTP and 0.5 mg/ml bovine serum albumin. The solutions were filtered through two stacks of DEAE-cellulose filters and the radioactivity in the filtrate was determined by liquid scintillation spectrometry. Each series of determinations included positive controls of 5 and 50 μM curacin A. The inventors found no evidence that SR-7 could bind to the colchicine site of tubulin. […] The inventors propose that SR-7 may act at another site such as the previously characterized vinca alkaloid site."}, "[3]": {"molecular_target": "T1, Cdk1 (Homo sapiens, UniProt P06493)", "T1 construct": "Lysates from asynchronous MCF-7 cells were immunoprecipitated with anti Cdk1 antibody coupled to agarose; endogenous in cells; host or cells: MCF-7 human breast cancer cells (immunoprecipitate)", "T1 sequence (P06493 whole entry)": "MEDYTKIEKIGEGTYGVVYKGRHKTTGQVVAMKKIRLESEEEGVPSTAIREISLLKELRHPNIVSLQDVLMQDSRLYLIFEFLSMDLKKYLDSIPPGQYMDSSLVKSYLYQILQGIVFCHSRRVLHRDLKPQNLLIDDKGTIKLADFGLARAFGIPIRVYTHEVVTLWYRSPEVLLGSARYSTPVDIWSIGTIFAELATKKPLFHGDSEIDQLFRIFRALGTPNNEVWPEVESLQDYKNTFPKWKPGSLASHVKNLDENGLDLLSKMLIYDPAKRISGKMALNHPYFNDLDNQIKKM", "T1 sequence (P14635 whole entry partner)": "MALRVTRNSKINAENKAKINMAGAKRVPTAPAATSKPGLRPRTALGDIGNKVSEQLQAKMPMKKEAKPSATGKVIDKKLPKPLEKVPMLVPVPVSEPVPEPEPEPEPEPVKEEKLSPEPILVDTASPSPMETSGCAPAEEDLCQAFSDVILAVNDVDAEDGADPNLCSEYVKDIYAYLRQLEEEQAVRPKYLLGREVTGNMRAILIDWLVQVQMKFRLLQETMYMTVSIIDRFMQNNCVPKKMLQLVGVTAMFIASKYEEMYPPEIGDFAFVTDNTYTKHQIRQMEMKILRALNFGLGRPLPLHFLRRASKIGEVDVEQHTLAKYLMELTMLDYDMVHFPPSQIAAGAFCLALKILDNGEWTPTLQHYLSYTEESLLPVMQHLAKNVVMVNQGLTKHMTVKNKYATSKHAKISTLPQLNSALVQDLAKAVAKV", "assay": "Cdk1 kinase activity assay (histone H1 phosphorylation)", "type": "biochemical", "settings": "immunoprecipitate from MCF-7 cells, 20 min", "method": "tsFT210 cells were harvested using the same procedure for cell synchronizing and drug exposure as described above for the G2/M flow cytometric analysis. The protein lysates were analyzed by Western blotting for Cdk1 as described previously (Tamura K, Southwick EC, Kerns J, Rosi K, Carr BI, Wilcox C and Lazo JS (2000) Cdc25 inhibition and cell cycle arrest by a synthetic thioalkyl vitamin K analogue. Cancer Res 60:1317-1325.). The inventors used Cdk1 isolated from human MCF-7 cells to assay for in vitro inhibition of enzyme activity because of available antibodies and convenience. Asynchronous cells grown at 37° C. in 5% CO2 in DMEM containing 10% fetal bovine serum were treated with lysis buffer and harvested as previously described (Vogt A, Wang AS, Johnson CS, Fabisiak JP, Wipf P and Lazo JS (2000) In vivo antitumor activity and induction of insulin-like growth factor-1 resistant apoptosis by SC-ααδ9. J Pharmacol Exptl Therap 292:530-537.). […] Histone H1 was separated from other proteins by SDS-PAGE and analyzed for incorporation of radioactive phosphate with a Molecular Dynamics STORM 860 Phospholmager (Sunnyvale, CA). […]"}}}
{"smiles": "O=C1C=CC2(Oc3cccc4cccc(c34)O2)c2cccc(OCc3ccco3)c21", "note": "[SR-7, 8-(furan-2-ylmethoxy)-1-oxo-1,4-dihydronaphthalene-4-spiro-2′-naphto [1″,8″-de][1′,3′] dioxin]", "values": [{"measurement": "Bcl-2 phosphorylation", "setting": "[1]", "value": "failed to generate significant hyperphosphorylated Bcl-2"}, {"measurement": "Percent inhibition of [3H]colchicine binding", "setting": "[2]", "value": "1.5 ± 0.5", "unit": "%"}, {"measurement": "direct inhibition of Cdk1 kinase activity", "setting": "[3]", "value": "not directly inhibited"}]}
